{"source": "patent US20060024844A1", "about": "“Method for the idenification of ligands” (priority 2002, published 2006)", "format_in_all_cases": "binding", "key": {"ER-α [1]": {"target": "T1, ER-α (Homo sapiens, UniProt P03372)", "T1 sequence (P03372 1-595)": "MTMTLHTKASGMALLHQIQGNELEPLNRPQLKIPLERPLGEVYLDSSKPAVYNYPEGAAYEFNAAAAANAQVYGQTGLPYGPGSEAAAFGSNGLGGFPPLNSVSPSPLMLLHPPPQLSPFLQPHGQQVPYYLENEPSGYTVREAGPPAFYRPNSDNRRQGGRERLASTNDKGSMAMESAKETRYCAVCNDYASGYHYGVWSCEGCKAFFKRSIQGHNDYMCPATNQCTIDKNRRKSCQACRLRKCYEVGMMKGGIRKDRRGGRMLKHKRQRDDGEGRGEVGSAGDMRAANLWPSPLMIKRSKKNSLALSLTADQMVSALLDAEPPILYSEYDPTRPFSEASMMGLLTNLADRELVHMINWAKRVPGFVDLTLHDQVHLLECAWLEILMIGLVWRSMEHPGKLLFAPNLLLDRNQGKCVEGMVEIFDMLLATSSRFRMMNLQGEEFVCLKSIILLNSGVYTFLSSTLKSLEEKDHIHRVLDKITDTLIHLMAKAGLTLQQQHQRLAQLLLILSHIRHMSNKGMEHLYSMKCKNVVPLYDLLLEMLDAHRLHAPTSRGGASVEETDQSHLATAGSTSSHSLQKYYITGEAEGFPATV", "test": "Microplate thermal shift assay (Thermofluor) of ER-α against a panel of steroid ligands", "procedure": "The concentration of ER-α in all of the experiments was 8 μM and the ligand concentration was 20 μM.\nA 2 μL ligand solution at 2 times the final concentration was dispensed with a micropipette into a 384 well black wall Greiner plate. Then, 2 μL of the protein dye solution was dispensed on top of the ligand solution in the 384 well plate. The plates were spun to ensure mixing of the protein-dye and ligand solutions followed by layering of […], of silicone oil to prevent evaporation during heating of the samples."}, "ER-β": {"target": "ER-β (Homo sapiens, UniProt Q92731)", "sequence (Q92731 whole entry, species assumed)": "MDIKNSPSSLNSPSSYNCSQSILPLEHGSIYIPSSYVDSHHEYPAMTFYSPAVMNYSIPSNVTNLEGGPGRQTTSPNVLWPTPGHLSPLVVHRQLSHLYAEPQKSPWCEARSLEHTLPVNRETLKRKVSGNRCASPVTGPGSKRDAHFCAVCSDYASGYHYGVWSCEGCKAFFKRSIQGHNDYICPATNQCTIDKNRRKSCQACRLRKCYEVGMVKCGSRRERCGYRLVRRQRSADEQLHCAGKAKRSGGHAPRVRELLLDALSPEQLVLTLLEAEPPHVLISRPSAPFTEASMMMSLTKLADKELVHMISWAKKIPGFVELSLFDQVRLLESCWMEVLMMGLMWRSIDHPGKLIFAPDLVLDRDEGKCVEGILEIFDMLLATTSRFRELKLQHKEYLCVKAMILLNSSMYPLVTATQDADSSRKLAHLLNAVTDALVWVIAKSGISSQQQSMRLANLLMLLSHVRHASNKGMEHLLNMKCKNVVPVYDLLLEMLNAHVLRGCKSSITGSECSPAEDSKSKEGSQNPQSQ", "test": "Microplate thermal shift assay (Thermofluor) of ER-β with ligands and co-regulators", "conditions": "for Change in Tm stabilization from the receptor-ligand ΔTm in the presence of SRC-1 NR2 / Change in Tm stabilization from the receptor-ligand ΔTm in the presence of SRC-3 NR2 / Change in Tm stabilization from the receptor-ligand ΔTm in the presence of SRC-3 / Change in Tm stabilization from the receptor-ligand ΔTm in the presence of NCoR1 / Observed ΔTm stabilization, ligand alone / ΔTm at 11 µM: ER-β 8 μM, ligand 20 μM; for Change in Tm stabilization from the receptor-ligand ΔTm in the presence of SRC-1 NR2: co-activator peptide SRC1—NR2; for Change in Tm stabilization from the receptor-ligand ΔTm in the presence of SRC-3 NR2: co-activator peptide SRC3—NR2; for Change in Tm stabilization from the receptor-ligand ΔTm in the presence of SRC-3 / ΔTm at 11 µM: co-activator protein SRC-3 11 μM; for Change in Tm stabilization from the receptor-ligand ΔTm in the presence of NCoR1: co-repressor peptide NCoR-1; for Observed ΔTm stabilization, ligand alone: no co-regulator, average of four experiments; for ΔTm at 11 µM: read-out: Change in Tm stabilization from the receptor-ligand ΔTm in the presence of SRC-3", "quoted_text": "(§1) A 2 μL ligand solution at 2 times the final concentration was dispensed with a micropipette into a 384 well black wall Greiner plate. Then, 2 μL of the protein dye solution was dispensed on top of the ligand solution in the 384 well plate. The plates were spun to ensure mixing of the protein-dye and ligand solutions followed by layering of 1 μL of silicone oil to prevent evaporation during heating of the samples."}, "ER-α [2]": {"target": "T1, ER-α", "test": "Microplate thermal shift assay (Thermofluor) of ER-α with ligands and co-regulators", "quoted_text": "as §1"}, "[3]": {"conditions": "ER-α 8 μM, ligand 20 μM, average of four experiments, in °C (unit assumed)"}, "[4]": {"conditions": "ER-α 8 μM, ligand 20 μM, average of four experiments"}}, "note": "Read-outs that look alike come from different tables or passages of the source."}
{"molecule": "4-hydroxytamoxifen [4-OH-tamoxifen]", "values": [{"measurement": "Ligand function for ER-α (agonist or antagonist)", "setting": "ER-α [1]", "result": "antagonist"}, {"measurement": "ΔTm", "setting": "ER-α [1]; in °C (unit assumed)", "result": 19.99}]}
{"molecule": "17-α-ethyleneestradiol [17-α-ethylen-E2]", "values": [{"measurement": "Change in Tm stabilization from the receptor-ligand ΔTm in the presence of SRC-1 NR2", "setting": "ER-β", "result": 2.6}, {"measurement": "Change in Tm stabilization from the receptor-ligand ΔTm in the presence of SRC-3 NR2", "setting": "ER-β", "result": 2.6}, {"measurement": "Change in Tm stabilization from the receptor-ligand ΔTm in the presence of SRC-3", "setting": "ER-β", "result": 1.6}, {"measurement": "Change in Tm stabilization from the receptor-ligand ΔTm in the presence of NCoR1", "setting": "ER-β", "result": "−0.1"}, {"measurement": "Observed ΔTm stabilization, ligand alone", "setting": "ER-β", "result": 15.0}]}
{"molecule": "COc1cc2c(cc1O)CC[C@@H]1[C@@H]2CC[C@]2(C)[C@@H](O)CC[C@@H]12", "note": "[2-methoxy-E2, 2-methoxyestradiol]", "values": [{"measurement": "Change in Tm stabilization from the receptor-ligand ΔTm in the presence of NCoR1", "setting": "ER-α [2]; ER-α 8 μM, ligand 20 μM, co-repressor peptide NCoR-1", "result": "−0.3"}, {"measurement": "Observed ΔTm stabilization, ligand alone", "setting": "ER-α [2]; ER-α 8 μM, ligand 20 μM, no co-regulator, average of four experiments", "result": 1.8}, {"measurement": "Change in Tm stabilization from the receptor-ligand ΔTm in the presence of SRC-1 NR2", "setting": "ER-β", "result": 4.4}, {"measurement": "Change in Tm stabilization from the receptor-ligand ΔTm in the presence of SRC-3 NR2", "setting": "ER-β", "result": 4.4}, {"measurement": "Change in Tm stabilization from the receptor-ligand ΔTm in the presence of SRC-3", "setting": "ER-β", "result": 2.2}, {"measurement": "Change in Tm stabilization from the receptor-ligand ΔTm in the presence of NCoR1", "setting": "ER-β", "result": "−0.7"}, {"measurement": "Observed ΔTm stabilization, ligand alone", "setting": "ER-β", "result": 1.5}, {"measurement": "ΔTm", "setting": "ER-α [1]; [3]", "result": 5.98}, {"measurement": "Ligand function for ER-α (agonist or antagonist)", "setting": "ER-α [1]; interpretation if ligands had been screened against co-regulators as in Example 1", "result": "agonists"}]}
{"molecule": "C[C@@]12CCC[C@H]1[C@@H]1CCC3=CCCC[C@]3(C)[C@H]1CC2", "note": "[4-androstene]", "values": [{"measurement": "ΔTm", "setting": "ER-α [1]; [4]", "result": "−0.23"}]}
{"molecule": "C[C@]12CC[C@@H]3c4ccc(O)cc4CC[C@H]3[C@@H]1CC[C@@H]2O", "note": "[Estradiol, β-estradiol]", "values": [{"measurement": "ΔTm at 11 µM", "setting": "ER-β", "result": 1.1, "unit": "°C"}]}
{"molecule": "C[C@]12CC[C@@H]3c4ccc(O)cc4C[C@@H](CCCCCCCCC[S+]([O-])CCCC(F)(F)C(F)(F)F)[C@H]3[C@@H]1CC[C@@H]2O", "note": "(stereo partly shown) [ICI-182780]", "values": [{"measurement": "ΔTm at 11 µM", "setting": "ER-α [2]; ER-α 8 μM, ligand 20 μM, co-activator protein SRC-3 11 μM, read-out: Change in Tm stabilization from the receptor-ligand ΔTm in the presence of SRC-3", "result": 0, "unit": "°C"}, {"measurement": "Additional stabilization / ability to recruit co-activators in the presence of co-activator protein/peptide", "setting": "ER-α [2]; ER-α, result in words", "result": "no ability to recruit co-activators"}, {"measurement": "ΔTm at 11 µM", "setting": "ER-β", "result": 0.6, "unit": "°C"}, {"measurement": "Observed ΔTm stabilization, ligand alone", "setting": "ER-β", "result": 13.6}, {"measurement": "Additional stabilization / ability to recruit co-activators in the presence of co-activator protein/peptide", "setting": "ER-β; ER-β, result in words", "result": "no ability to recruit co-activators"}]}
{"molecule": "C[C@]12C[C@H](O)[C@H]3[C@@H](CCC4=CC(=O)CC[C@@]43C)[C@@H]1CC[C@@H]2C(=O)CO", "note": "[corticosterone]", "values": [{"measurement": "ΔTm", "setting": "ER-α [1]; [4]", "result": "−0.27"}]}
{"molecule": "C[C@]12CCC(=O)C=C1CC[C@@H]1[C@@H]2C(=O)C[C@@]2(C)[C@H]1CC[C@]2(O)C(=O)CO", "note": "[cortisone]", "values": [{"measurement": "ΔTm", "setting": "ER-α [1]; [3]", "result": 0.01}]}
{"molecule": "CC(=O)[C@H]1CC[C@H]2[C@@H]3CCC4=CC(=O)CC[C@]4(C)[C@H]3CC[C@]12C", "note": "[progesterone]", "values": [{"measurement": "ΔTm", "setting": "ER-α [1]; [4]", "result": "−0.19"}]}
{"molecule": "SRC-3: co-activator protein SRC-3", "values": [{"measurement": "Observed ΔTm stabilization by co-regulator alone (no ligand)", "setting": "ER-α [2]; ER-α 8 μM, no ligand, SRC-3 11 μM, peptides 100 XM", "result": 0.5, "unit": "°C"}, {"measurement": "Preferential recruitment of co-activator, ER-α vs. ER-β", "setting": "ER-α [2]; in the presence of estrogen-like ligands, result in words", "result": "preferentially recruited"}]}
